In PubChem BioAssay (NCI):
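All cell lines were grown in 96-well plates and treated with compound for 48 hours. Here, GI50 denotes the concentration required for 50% inhibition of growth. TGI: concentration producing complete growth inhibition.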 Where a SMILES comes first, the peptide text is derived from it.

How the values were obtained:
Assay in all cases: NCI anticancer screen, dose series, 48 h
HCT-116 colon = tested on: HCT-116 colon
A549 NSCLC = tested on: A549 NSCLC
EKVX NSCLC = tested on: EKVX NSCLC
RPMI-8226 leukemia = tested on: RPMI-8226 leukemia
HT29 colon = tested on: HT29 colon
MOLT-4 leukemia = tested on: MOLT-4 leukemia
HCC-2998 colon = tested on: HCC-2998 colon
LOX IMVI melanoma = tested on: LOX IMVI melanoma

SMILES	TGI (HCT-116 colon) [µM]	TGI (A549 NSCLC) [µM]	TGI (EKVX NSCLC) [µM]	TGI (RPMI-8226 leukemia) [µM]	TGI (HT29 colon) [µM]	TGI (MOLT-4 leukemia) [µM]	TGI (HCC-2998 colon) [µM]	TGI (LOX IMVI melanoma) [µM]	GI50 (HCT-116 colon) [µM]	GI50 (A549 NSCLC) [µM]	GI50 (EKVX NSCLC) [µM]	GI50 (RPMI-8226 leukemia) [µM]	GI50 (HT29 colon) [µM]	GI50 (MOLT-4 leukemia) [µM]	GI50 (HCC-2998 colon) [µM]	GI50 (LOX IMVI melanoma) [µM]
CCC(C)C1NC(=O)C2CCCN2C(=O)CNC(=O)C(C)NC(=O)C(Cc2ccccc2)NC(=O)C(C(C)C)NC1=O (stereo unspecified) (cyclo(GPIVFA); configuration not given here)	> 100	> 100	> 100	> 100	> 100	> 100	> 100	> 100								
COc1ccc2c(c1)[n+]([O-])c(-c1ccc(C)cc1)c(N)[n+]2[O-]	> 100	> 100	> 100	> 100	> 100											
O=[N+]([O-])c1ccccc1C=NC12CC3CC(CC(C3)C1)C2	> 100	> 100	> 100	> 100	> 100	> 100	> 100	> 100								
COc1ccc(-c2cc(-c3cc(Cl)cc(Br)c3O)[nH]c(=O)n2)cc1	24.5	33.7	27.3	49	39.4	35.3	45.5	33.2								
CC(=O)[CH-]C(=O)c1ccccc1.CC(=O)[CH-]C(=O)c1ccccc1.Cl.[O-]c1ccccn1.[O-]c1ccccn1.[Ti+4]	> 100	> 100	> 100	> 100	> 100	> 100	> 100	> 100	> 100	> 100	> 100	> 100	> 100	> 100	> 100	> 100
Cc1ccc(-c2cc(=O)c3cc(C)c(C)c(C(=O)O)c3o2)cc1N	> 100	> 100	> 100	> 100	> 100	> 100		> 100								
COC(=O)N/N=C(/CCC(=O)Nc1ccc(C)c(C)c1)CC(=O)C(C)(C)C		> 100	> 100	> 100	> 100	> 100	> 100	> 100								
C#CC1(O)c2ccccc2C(=O)c2ccccc21	> 100	> 100	> 100		> 100	> 100	> 100	> 100								
Clc1ccc2nc(-c3ccccc3)nc(Cl)c2c1	> 100	> 100	> 100	> 100	> 100	> 100	> 100									
Cc1ccc(NC(=S)SCCC(=O)O)cc1	> 100	> 100	> 100	> 100	> 100	> 100	> 100	> 100								
COc1ccc(/C=c2/sc3n(c2=O)NC2(CCC(C)CC2)NN=3)cc1 (stereo unspecified)	> 100	> 100	> 100		> 100	> 100	> 100	> 100								
CC12CO[C@@](C)(CC(S(=O)(=O)c3ccccc3)C1)O2 (stereo partly specified)	> 100	> 100	> 100	> 100	> 100	> 100	> 100									
COC(=O)C1C=NNC1C(=O)OC (stereo unspecified)	> 100	> 100	> 100	> 100	> 100	> 100	> 100	> 100								
C=CC1(NS(=O)(=O)c2ccc(C)cc2)CCC(C(C)(C)C)CC1 (stereo unspecified)	> 100	> 100		> 100		> 100	> 100									
O=C(CC1(O)C(=O)Nc2ccccc21)c1ccc(O)cc1 (stereo unspecified)	> 100	> 100	> 100	> 100	> 100	> 100	> 100	> 100								
Cc1cccc(N2C(=O)C(=O)C(c3nc4ccccc4s3)/C(=N/NC(=S)NN)C2=O)c1C (stereo unspecified)	> 100		> 100	> 100		> 100	> 100	> 100								
CC(CNCCCNCCNCCCNCO)[N+](=O)[O-] (stereo unspecified)	22.7	57	29.9	35	41.7	30.4	31	28.2								
CCN(CC)C(=O)N1CCN(C=S)CC1	> 100	> 100	> 100		> 100	> 100	> 100	> 100								
O=[N+]([O-])c1cc(Cl)ccc1OCc1ccccc1	> 100	> 100	> 100	> 100	84.1	> 100	> 100	> 100								
CC1C[C@]2(C[C@@H](C)C(=O)O2)O[C@@H]2CC3(C)[C@@H]4CCC5C(C)(C)OC(=O)C[C@H]6OO[C@]4(CC[C@]3(C)C12)CC56O (stereo partly specified)		> 100		> 100	> 100		> 100	> 100								
CC1=C(C(=O)Nc2ccc([N+](=O)[O-])cc2)C(c2ccc3c(c2)OCO3)C(C(=O)Nc2ccc([N+](=O)[O-])cc2)=C(C)N1	> 100	> 100	> 100	68.5	> 100		57.4									
